# Test results published in ChEMBL document CHEMBL3232772, “Spiramine derivatives induce apoptosis of Bax(-/-)/Bak(-/-) cell and cancer cells” (Bioorg Med Chem Lett, 2014).
# The source made the active and inactive calls. The calls are words filed in the database; no cut-off is given here.
# Key:
# MCF7 = assay: Cytotoxicity against human MCF7 cells after 48 hrs by MTT assay; type: functional, cell-based; details: MCF7, 48 h
# MEF [1] = assay: Induction of apoptosis in Bax(-/-)/Bak(-/-) MEF at 10 uM after 24 to 48 hrs; type: functional, cell-based; details: Mus musculus
# SW480 [2] = assay: Cytotoxicity against human SW480 cells after 48 hrs by MTT assay; type: functional, cell-based; details: SW480, 48 h
# SMMC-7721 = assay: Cytotoxicity against human SMMC7721 cells after 48 hrs by MTT assay; type: functional, cell-based; details: SMMC-7721, 48 h
# HL-60 = assay: Cytotoxicity against human HL60 cells after 48 hrs by MTT assay; type: functional, cell-based; details: HL-60, 48 h
# A549 = assay: Cytotoxicity against human A549 cells after 48 hrs by MTT assay; type: functional, cell-based; details: A549, 48 h
# [3] = Cytotoxicity against human MCF7/ADR cells after 48 hrs by MTT assay; type: functional, cell-based; details: NCI/ADR-RES
# NCI/ADR-RES = assay: Resistant factor, ratio of IC50 for human MCF7/ADR cells to IC50 for human MCF7 cells; type: functional
# MEF [4] = assay: Induction of apoptosis in Bax(-/-)/Bak(-/-) MEF after 48 hrs; type: functional, cell-based; details: Mus musculus
# SW480 [5] = assay: Induction of apoptosis in human SW480 cells assessed as activation of caspase activity at 20 uM after 24 hrs by CASPACE-FITC staining (reference value: 6.2%); type: functional
# MEF [6] = assay: Induction of apoptosis in Bax(-/-)/Bak(-/-) MEF assessed as activation of caspase activity at 20 uM after 24 hrs by CASPACE-FITC staining (reference value: 12.2%); type: functional, Mus musculus
# SW480 [7] = assay: Induction of apoptosis in human SW480 cells assessed as late apoptotic cells at 20 uM after 24 hrs using annexin V-FITC and propidium iodide staining by flow cytometry (reference value: 1.0%); type: functional
# MEF [8] = assay: Induction of apoptosis in Bax(-/-)/Bak(-/-) MEF assessed as late apoptotic cells at 20 uM after 24 hrs using annexin V-FITC and propidium iodide staining by flow cytometry (reference value: 3.3%); type: functional, Mus musculus
# MEF [9] = assay: Induction of apoptosis in Bax(-/-)/Bak(-/-) MEF assessed as early apoptotic cells at 20 uM after 24 hrs using annexin V-FITC and propidium iodide staining by flow cytometry (reference value: 0.6%); type: functional, Mus musculus
# SW480 [10] = assay: Induction of apoptosis in human SW480 cells assessed as early apoptotic cells at 20 uM after 24 hrs using annexin V-FITC and propidium iodide staining by flow cytometry (reference value: 1.4%); type: functional
# SW480 [11] = assay: Induction of apoptosis in human SW480 cells assessed as activation of caspase activity at 10 uM after 24 hrs by CASPACE-FITC staining (reference value: 6.2%); type: functional
# MEF [12] = assay: Induction of apoptosis in Bax(-/-)/Bak(-/-) MEF assessed as late apoptotic cells at 10 uM after 24 hrs using annexin V-FITC and propidium iodide staining by flow cytometry (reference value: 3.3%); type: functional, Mus musculus
# MEF [13] = assay: Induction of apoptosis in Bax(-/-)/Bak(-/-) MEF assessed as activation of caspase activity at 10 uM after 24 hrs by CASPACE-FITC staining (reference value: 12.2%); type: functional, Mus musculus
# SW480 [14] = assay: Induction of apoptosis in human SW480 cells assessed as early apoptotic cells at 10 uM after 24 hrs using annexin V-FITC and propidium iodide staining by flow cytometry (reference value: 1.4%); type: functional
# MEF [15] = assay: Induction of apoptosis in Bax(-/-)/Bak(-/-) MEF assessed as early apoptotic cells at 10 uM after 24 hrs using annexin V-FITC and propidium iodide staining by flow cytometry (reference value: 0.6%); type: functional, Mus musculus
# SW480 [16] = assay: Induction of apoptosis in human SW480 cells assessed as late apoptotic cells at 10 uM after 24 hrs using annexin V-FITC and propidium iodide staining by flow cytometry (reference value: 1.0%); type: functional
SMILES,IC50 (MCF7) [µM],Activity (MEF [1]),IC50 (SW480 [2]) [µM],IC50 (SMMC-7721) [µM],IC50 (HL-60) [µM],IC50 (A549) [µM],IC50 (MEF [4]) [µM],Activity (SW480 [5]) [%],Activity (MEF [6]) [%],Activity (SW480 [7]) [%],Activity (MEF [8]) [%],Activity (MEF [9]) [%],Activity (SW480 [10]) [%],also measured
C=C1C(=O)[C@@]23CC[C@@H](C[C@H]2[C@@]24CCC[C@@](C)(CN(CCO)C2)[C@@H]14)C(=C)[C@@H]3O,6.98,Active,9.84,1.48,4.82,3.04,,,,,,,,
COc1cccc2c1C(=O)c1c(O)c3c(c(O)c1C2=O)C[C@@](O)(C(=O)CO)C[C@@H]3O[C@H]1C[C@H](N)[C@H](O)[C@H](C)O1 [DOXORUBICIN],0.077,,,,,,,,,,,,,IC50 [3]: 68.4 µM; Ratio IC50 (NCI/ADR-RES): 888.75
C=C1C(=O)[C@]23CC[C@H]1C[C@H]2[C@@]12CCC[C@@]4(C)C(=O)N(CCO)[C@H]1O[C@@H]3C[C@@H]24,13.2,Active,12.4,18.4,18.6,17.9,,,,,,,,
C=C1C(=O)[C@]23CC[C@H]1C[C@H]2[C@@]12CCC[C@@](C)(CN(CCO[Si](C)(C)C(C)(C)C)C1)[C@H]2C(=C)C3=O,2.9,Active,2.78,2.63,1.39,1.55,,,,,,,,
C=C1C(=O)[C@]23CC[C@H]1C[C@H]2[C@@]12CCC[C@@]4(C)C5OCCN5[C@H]1O[C@@H]3C[C@@H]24 (stereo partly drawn),0.67,Active,1.97,1.04,1.34,2.03,2.24,18.2,87.8,15.9,86.2,1.9,16.9,
C=C1C(=O)[C@]23CC[C@H]1C[C@H]2[C@@]12CCC[C@@](C)(CN(CCO)C1)[C@H]2CC3=O,15.7,Active,11.8,15.2,14.3,9.24,4.52,10.9,66.6,13.3,52.2,11.7,10.9,
C=C1C(=O)[C@]23CC[C@H]1C[C@H]2[C@@]12CCC[C@@](C)(CN(CCO)C1)[C@H]2C[C@H]3O,16.6,Active,14.4,11.2,7.95,9.92,,,,,,,,
C=C1C(=O)[C@]23CC[C@H]1C[C@H]2[C@@]12CCC[C@@]4(C)C(=O)N[C@H]1O[C@@H]3C[C@@H]24,15.7,Active,14.2,15.7,18.6,19,,,,,,,,IC50 [3]: 28.3 µM; Ratio IC50 (NCI/ADR-RES): 1.4
C=C1C(=O)[C@]23CC[C@H]1C[C@H]2[C@@]12CCC[C@@](C)(C(=O)N4CCO[C@H]41)[C@H]2C[C@H]3O,1.12,Active,2.81,2.63,2.73,3.09,3.38,60.1,93.2,40.1,68.3,21.7,46.7,Activity (SW480 [11]): 12.1%; Activity (MEF [12]): 2.1%; IC50 [3]: 8.8 µM; Activity (MEF [13]): 14.3%; Activity (SW480 [14]): 25.5%; Activity (MEF [15]): 8.6%; Activity (SW480 [16]): 8.6%; Ratio IC50 (NCI/ADR-RES): 1.66
C=C1C(=O)[C@]23CC[C@H]1C[C@H]2[C@@]12CCC[C@@](C)(CN(CCO)C1)[C@H]2C(=C)C3=O,3.57,Active,2.81,11.5,6.61,6.5,1.81,29.8,97.1,44.2,76.8,28.2,13.1,
C=C1C(=O)[C@]23CC[C@H]1C[C@H]2[C@@]12CCC[C@@]4(C)CN(CCO)[C@H]1O[C@@H]3C[C@H]42,10.3,Active,14,23.6,19.3,18.6,,,,,,,,
C=C1C(=O)[C@]23CC[C@H]1C[C@H]2[C@@]12CCC[C@@](C)(COC1=O)[C@H]2C[C@H]3O,3.25,Active,3.58,3.96,6.36,3.22,1.74,,,,,,,
